{
  "source": "patent US20250066423A1",
  "about": "“SESTRIN-MAPK COMPLEX INHIBITORS” (Sentcell Ltd, priority 2021, published 2025)",
  "key": {"[1]": {"tested_on": "sMAC activation (Sestrin 2, p-p38)", "assay": "Titration of DOS46L in senescent CD4+ CD27− CD28− T cells, immunoblot", "type": "cell-based, human", "conditions": "within 4 hours of treatment", "description": "FIG. 7 illustrates titration of DOS46L. (A-B) CD4+ CD27− CD28− T cells were isolated from PBMCs from healthy donors and treated with increasing doses of DOS46L compound for 4 hours and harvested for immunoblot analysis. (A) Levels of Sestrin 2, p-p38 and H2B were evaluated by immunoblot. (B) Quantification of Sestrin 2 was analysed with Histone 3 as a loading control. Represented are the mean values±SEM of at least three independent experiments. Values are compared using One-Way ANOVA test followed by Tukey's post hoc test. (C-D) CD4+ CD27−CD28− T cells were treated with DOS46L compound (10 uM) for 0.5, 1, 2 and 4 hours and harvested for immunoblot analysis at indicated time points. (C) Levels of Sestrin 1, Sestrin 2, and Sestrin 3 were evaluated by immunoblot. Histone 3 was used as a loading control. (D) Quantification of Sestrin 1, Sestrin 2 and Sestrin 3, with Histone 3 as a loading control. Represented are the mean values±SEM of at least four independent experiments. Values are compared using One-Way ANOVA test followed by Tukey's post hoc test or Student's T-test. *p<0.05, **p<0.01\n• 1. CD4+ cells were separated from PBMC using appropriate microbeads kit (Miltenyi) • 2. Cells were resuspended in whole RPMI medium and plated in the 24-multiwell plate • 3. Then activated for 4 hrs with DOS compounds • 4. […]"}, "sestrin mRNA": {"tested_on": "sestrin mRNA", "assay": "Sestrin mRNA expression in spleens of DOS treated old mice (qPCR)", "type": "in vivo", "conditions": "single dose, from day ten", "description": "FIG. 13 illustrates the level of Sestrin in DOS-treated murine blood and tissues. (A-B) Old mice were inoculated subcutaneously with DOS46L compound (0.1 mg/kg or 1 mg/kg). Blood was withdrawn at 0, 48, 72 hours and 8 weeks after the inoculation. Pharmacodynamics of Sestrin 2 were analysed by FACS in CD4+ T cell population. […] Untreated age-matched controls are shown. (D) 72 hr after DOS treatment, mice were sacrificed and old tissues were collected to analyse Sestrin levels in different organs by immunoblotting. **p<0.01, *p<0.05.\n• 1. Transduced cells were collected • 2. Cell suspension was centrifugated and the cell pellet resuspended in warm PBS with 5 μM of CTV • 3. Followed an incubation of 10 min at 37° C. • 4. Cold PBS was added and cells were centrifugated • 5. Cells were then resuspended in medium and counted • 6. An aliquot of these cells were checked by FACS • 7. Cells were then stimulated with DOS in 200 μL and left for 12 days in culture RNA Extraction, Retro-Transcription and qPCR • 1. CD4+ cells were purified from mouse spleen using appropriate microbeads (Miltenyi) • 2. Total RNA from CD4+ cells was extracted using the “PureLink RNA Mini Kit” (Invitrogen). • 3. RNA concentration was acquired by NANO-DROP spectrophotometer (Thermo-Scientific). • 4. […]"}},
  "note": "Peptide text beside a SMILES is read from it.",
  "data": [
    {"smiles": "CC[C@H](C)[C@@H]1NC(=O)[C@H](Cc2ccccc2)NC(=O)[C@H](C)NC(=O)[C@H](C(C)C)NC(=O)[C@@H]2CCCN2C1=O", "note": "[DOS46L] (cyclo(AFIPV))", "values": [
      {"measurement": "concentration from which sMAC activation is suppressed", "setting": "[1]", "result": 16, "unit": "nM"},
      {"measurement": "sestrin mRNA expression", "setting": "sestrin mRNA", "result": "Long term mRNA silencing of sestrin expression"}
    ]}
  ]
}
